Data as given in PMC8980959, “Ceramide kinase regulates acute wound healing by suppressing 5-oxo-ETE biosynthesis and signaling via its receptor OXER1” (Journal of Lipid Research, 2022).

Columns and labels:
[1] = molecular target: T1, ceramide kinase (CERK), human (Homo sapiens, UniProt Q8TCT0); test: in vitro CERK activity assay; format: biochemical
T1 sequence (Q8TCT0 1-537): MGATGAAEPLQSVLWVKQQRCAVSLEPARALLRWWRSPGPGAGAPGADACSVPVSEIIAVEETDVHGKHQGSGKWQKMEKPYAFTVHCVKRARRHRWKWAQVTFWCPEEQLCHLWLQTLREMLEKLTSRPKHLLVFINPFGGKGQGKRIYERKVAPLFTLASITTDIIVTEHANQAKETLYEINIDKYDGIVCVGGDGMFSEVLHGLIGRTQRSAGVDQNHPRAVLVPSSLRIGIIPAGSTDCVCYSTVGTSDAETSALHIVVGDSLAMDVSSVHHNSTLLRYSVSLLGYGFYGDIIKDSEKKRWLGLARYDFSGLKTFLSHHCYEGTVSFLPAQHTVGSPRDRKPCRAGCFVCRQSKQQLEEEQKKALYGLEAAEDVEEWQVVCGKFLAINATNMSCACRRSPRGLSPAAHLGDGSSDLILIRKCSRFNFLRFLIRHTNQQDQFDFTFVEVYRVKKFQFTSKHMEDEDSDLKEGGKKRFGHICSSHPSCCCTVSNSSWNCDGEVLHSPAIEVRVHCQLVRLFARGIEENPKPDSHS

[2] = molecular target: T2, ceramide kinase (CERK), mouse (Mus musculus, UniProt Q8K4Q7); test: in vitro CERK activity assay; format: biochemical
T2 sequence (Q8K4Q7 1-531): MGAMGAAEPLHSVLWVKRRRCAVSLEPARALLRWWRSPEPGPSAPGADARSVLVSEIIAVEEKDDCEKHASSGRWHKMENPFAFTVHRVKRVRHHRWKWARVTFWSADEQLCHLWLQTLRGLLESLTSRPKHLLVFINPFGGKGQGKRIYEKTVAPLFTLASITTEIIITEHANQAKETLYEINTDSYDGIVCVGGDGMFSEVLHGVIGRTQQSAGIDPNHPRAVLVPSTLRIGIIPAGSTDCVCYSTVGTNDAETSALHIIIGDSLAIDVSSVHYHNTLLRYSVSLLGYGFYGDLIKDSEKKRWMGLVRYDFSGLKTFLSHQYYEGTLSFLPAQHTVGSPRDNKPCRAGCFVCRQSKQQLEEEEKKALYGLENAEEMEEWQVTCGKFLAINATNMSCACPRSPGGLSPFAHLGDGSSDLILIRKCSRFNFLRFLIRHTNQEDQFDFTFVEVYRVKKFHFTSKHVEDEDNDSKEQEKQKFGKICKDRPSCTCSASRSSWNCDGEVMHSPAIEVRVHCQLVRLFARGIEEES

[3] = molecular target: T2, ceramide kinase (CERK), mouse; test: C1P product levels by UPLC ESI-MS/MS in mouse dermal fibroblasts, […]; format: cell-based

Molecule	IC50 [1]	IC50 [2]	C1P product levels by UPLC ESI-MS/MS in mouse dermal fibroblasts, 100 nM [3]
SYR382141	5 nM	9 nM	
O=C(Nc1nc2ccc(NC(=O)C34CC5CC(CC(C5)C3)C4)cc2s1)c1ccccc1 [NVP-231, N-[2-(Benzoylamino)-6-benzothiazolyl]tricyclo[3.3.1.13,7]decane-1-carboxamide]			significantly reduced by SYR382141 in pDFs to an equivalent or greater extent as NVP-231
